Test results as given in ChEMBL document CHEMBL1128096, “Gamma-lactams and related compounds as cholesterol absorption inhibitors: homologs of the beta-lactam cholesterol absorption inhibitor SCH 484611” (1995).
The source made the active and inactive calls. The rule behind the calls is not given here.

Tested on: Cricetinae gen. sp.
Assay: Tested for ability to reduce liver cholesterol ester (L/CE) levels in the cholesterol fed hamster model at a dose of 10 mg/kg
Assay type: functional, Cricetulus griseus
Conditions: not given

Row | SMILES | L/CE [%]
1 | COc1ccc([C@@H]2[C@H](CCCc3ccccc3)C(=O)N2c2ccc(OC)cc2)cc1 | 69
2 | COc1ccc([C@@H]2[C@@H](CCCc3ccccc3)C(=O)N2c2ccc(OC)cc2)cc1 [SCH-48461] | 93

Tested on: Cricetinae gen. sp.
Assay: Ability to reduce liver cholesterol ester (L/CE) levels in the cholesterol fed hamster model at a dose of 50 mg/k
Assay type: functional, Cricetulus griseus
Conditions: not given

Row | SMILES | L/CE [%]
3 | COc1ccc([C@@H]2[C@@H](CCCc3ccccc3)C(=S)N2c2ccc(OC)cc2)cc1 | 23
4 | COc1ccc([C@@H]2[C@@H](CCCc3ccccc3)S(=O)(=O)N2c2ccccc2)cc1 | 51
5 | COc1ccc([C@@H]2[C@@H](CCCc3ccccc3)CC(=O)N2c2ccc(OC)cc2)cc1 | 12
6 | COc1ccc([C@@H]2[C@H](c3ccc4ccccc4c3)CC(=O)N2c2ccc(OC)cc2)cc1 | 21
7 | COc1ccc([C@@H]2[C@H](CCc3ccccc3)OC(=O)N2c2ccccc2)cc1 | 21
8 | COc1ccc([C@@H]2[C@H](CCc3ccccc3)CC(=O)N2c2ccc(OC)cc2)cc1 | 16
9 | COc1ccc([C@@H]2[C@@H](CCc3ccccc3)NC(=O)N2c2ccccc2)cc1 | 34
10 | COc1ccc([C@@H]2[C@@H](c3ccc4ccccc4c3)CC(=O)N2c2ccc(OC)cc2)cc1 | 28
11 | COc1ccc([C@@H]2[C@@H](CCCc3ccccc3)C(=O)N2c2ccc(OC)cc2)cc1 [SCH-48461] | 78
12 | COc1ccc([C@@H]2[C@@H](CCc3ccccc3)OC(=O)N2c2ccccc2)cc1 | 34
13 | COc1ccc([C@@H]2[C@H](CCCCc3ccccc3)CC(=O)N2c2ccc(OC)cc2)cc1 | 30
14 | COc1ccc([C@@H]2[C@@H](CCCCc3ccccc3)CC(=O)N2c2ccc(OC)cc2)cc1 | 52
15 | COc1ccc([C@@H]2[C@H](CCCc3ccccc3)CC(=O)N2c2ccc(OC)cc2)cc1 | 43
16 | COc1ccc([C@@H]2[C@@H](CCc3ccccc3)CC(=O)N2c2ccc(OC)cc2)cc1 | 24
17 | COc1ccc([C@@H]2[C@@H](CCCc3ccccc3)OC(=O)N2c2ccccc2)cc1 | 47
18 | COc1ccc([C@@H]2[C@H](CCCc3ccccc3)C(=O)N2c2ccc(OC)cc2)cc1 (racemic) | 95
19 | COc1ccc([C@@H]2[C@H](CCCc3ccccc3)S(=O)(=O)N2c2ccccc2)cc1 | 43

Tested on: Cricetinae gen. sp.
Assay: Tested for ability to reduce liver cholesterol ester (L/CE) levels in the cholesterol fed hamster model at a dose of 50 mg/kg; NE: No effect
Assay type: functional, organism-based
Set-up: dose 50 mg/kg
Conditions: Cricetulus griseus

Row | SMILES | L/CE
20 | COc1ccc([C@H]2CN(c3ccc(OC)cc3)C(=O)[C@@H]2CCCc2ccccc2)cc1 | inactive
21 | COc1ccc([C@@H]2C[C@@H](CCCCc3ccccc3)C(=O)N2c2ccccc2)cc1 | inactive
22 | COc1ccc([C@@H]2C[C@@H](CCCc3ccccc3)C(=O)N2c2ccc(OC)cc2)cc1 | inactive
23 | COc1ccc([C@H]2C[C@@H](CCCCc3ccccc3)C(=O)N2c2ccccc2)cc1 | inactive
